# Laboratory results reported in PubChem BioAssay (NCI).
# Where “and” joins values, the source holds several entries; their conditions need not be identical. Equal entries are not always repeated.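 Cells were grown in 96-well plates and exposed to each compound for 48 hours at five concentrations; endpoints were interpolated linearly between bracketing concentrations, or set to the highest concentration if not reached. GI50: concentration for 50% inhibition of growth. TGI is the concentration that stops growth completely.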
# What was measured:
# Test in all cases: NCI tumour cell line growth inhibition, 48 h
# NCI-H522 lung = tested on: NCI-H522 lung
# RXF 393 renal = tested on: RXF 393 renal
# 786-0 renal = tested on: 786-0 renal
# HT29 colon = tested on: HT29 colon
# OVCAR-5 ovarian = tested on: OVCAR-5 ovarian
# M14 melanoma = tested on: M14 melanoma
# HCC-2998 colon = tested on: HCC-2998 colon
# OVCAR-3 ovarian = tested on: OVCAR-3 ovarian
# NCI-H226 lung = tested on: NCI-H226 lung
# SNB-75 CNS = tested on: SNB-75 CNS
Compound,GI50 (NCI-H522 lung) [nM],TGI (NCI-H522 lung),GI50 (RXF 393 renal) [µM],TGI (RXF 393 renal),GI50 (786-0 renal) [µM],TGI (786-0 renal),GI50 (HT29 colon) [µM],TGI (HT29 colon),GI50 (OVCAR-5 ovarian) [µM],TGI (OVCAR-5 ovarian),GI50 (M14 melanoma) [µM],TGI (M14 melanoma),GI50 (HCC-2998 colon) [µM],TGI (HCC-2998 colon),GI50 (OVCAR-3 ovarian) [µM],TGI (OVCAR-3 ovarian) [µM],GI50 (NCI-H226 lung) [µM],TGI (NCI-H226 lung),GI50 (SNB-75 CNS),TGI (SNB-75 CNS)
COc1cc2c3c(n(CCCNC(=O)OCC4c5ccccc5-c5ccccc54)c(=O)c2cc1OC)-c1cc2c(cc1/C3=C\CCNC(=O)OCC1c3ccccc3-c3ccccc31)OCO2,> 11000,> 23.6 µM,5.28,14.6 µM,> 16.2,> 29.8 µM,21.5,> 50 µM,> 19.6,> 45 µM,> 25.3,> 50 µM,> 50,> 50 µM,> 44.6,> 50,> 50,> 50 µM,> 50 µM,> 50 µM
COc1cc2c(c(OC)c1OC)-c1ccc(OC)c(=O)cc1[C@@H](NC(=O)c1ccccc1)CC2,3.57,0.0125 µM and 0.0205 µM,< 0.003,8.22 µM and 3.18 µM,0.0114,30 µM and 47.5 µM,0.00658,,< 0.003,30 µM and > 94.1 µM,,8.46 µM,< 0.003,,< 0.003,,,1.89 µM,,33.8 µM
c1ccc2c(c1)ccn2CCc1c[nH]c2ccccc12,,> 10 µM,,> 10 µM,,> 10 µM,,> 10 µM,,> 10 µM,,> 10 µM,,> 10 µM,,> 10,,> 10 µM,,> 10 µM
C1=CC2SSSC2C1 (centres undefined),,> 100 µM,,> 100 µM,,> 100 µM,,> 100 µM,,> 100 µM,,> 100 µM,,> 100 µM,,> 100,,> 100 µM,,> 100 µM
O=C1OC(c2ccccc2)=N/C1=C\c1cccc2ccccc12,,> 100 µM,,> 100 µM,,> 100 µM,,> 100 µM,,> 100 µM,,> 100 µM,,> 100 µM,,> 100,,> 100 µM,,> 100 µM
Cc1cccc(NC(=O)C(=O)C(C(=O)c2ccc3ccccc3c2)C2OC(=O)c3ccccc32)c1C (centres undefined),,43.5 µM,,11.6 µM,,20.3 µM,,64.4 µM,,54.7 µM,,33.4 µM,,19.5 µM,,50.1,,8.74 µM,,42.9 µM
COC1=CC(=O)c2nc(-c3cccc(C)n3)[nH]c2C1=O,19100,59.1 µM,> 100,> 100 µM,19.8,46.3 µM,33.4,> 100 µM,30.9,> 100 µM,35.6,> 100 µM,35.6,> 100 µM,22.9,46.4,21.7,43.8 µM,21.2 µM,43.6 µM
COc1ccc(Nc2c3ccccc3nc3occc23)cc1,2350,> 100 µM,1.85,17.7 µM,5.83,> 51.5 µM,1.49,,13.7,> 63.4 µM,2.14,> 43.1 µM,0.541,12.2 µM,0.366,4.2,31.9,> 100 µM,9.4 µM,> 100 µM
Cc1cn(C2CC(N(O)Cc3ccccc3)C(CO[Si](C)(C)C(C)(C)C)O2)c(=O)[nH]c1=O (centres undefined),,32.2 µM,,26.8 µM,,30.1 µM and 31.1 µM,,52.9 µM and 31.5 µM,,42.8 µM and 32.7 µM,,39 µM and 30.6 µM,,41.7 µM and 34.3 µM,,32,,35.6 µM and 36.9 µM,39 µM and 16.2 µM,> 100 µM and 29.8 µM
N#CC(NNC(=O)Cc1ccccc1)c1c(O)ccc2ccccc12 (centres undefined),,34 µM,,41.9 µM,,39.2 µM,,62.1 µM,,> 43.5 µM,,21.1 µM,,45.4 µM,,26.5,,47.3 µM,,45 µM
CC(=O)CSCc1ccccn1,,45.3 µM,,> 100 µM,,> 100 µM,,> 100 µM,,> 100 µM,,> 100 µM,,> 100 µM,,> 100,,43.7 µM,,71.9 µM
